Experimental data: patent US8481762B2, “Administration of compounds that increase glutathione levels in the melanocytes for the treatment of canities” (L'Oreal, priority 2004, dated 2013)

Test system: human melanocyte line WM35
Conditions: wild-type WM35 treated 24 h before H2O2 stress; compared with clone-2 line
Procedure: To carry out the test, the cells are inoculated at the density of 2.5×10^4 cells/well and then treated with the compounds to be evaluated:
a—1:1 mixture containing 4 μg/ml of cafestol and kahweol;
After 24 h, the cells are exposed to a stress induced by H2O2.
The cell viability is measured 24 h after the stress with the aid of 2′,7′-dichlorodihydrofluoresceine diacetate (H2DCFDA; D399, Molecular Probes).

## Cc1c(-c2cnccn2)ssc1=S [oltipraz]
  effect on sensitivity of the wild-type line to H2O2 induced stress: limits the sensitivity of the cells to H2O2 induced stress
